Data taken from ChEMBL document CHEMBL1143799, “Synthesis and primary cytotoxicity evaluation of new imidazo[2,1-b]thiazole derivatives” (2007).

Key:
Type in all cases: functional
[1] = test system: SF-268; test: Cytotoxicity against human SF268 cells assessed as growth at 100 uM after 48 hrs by SRB protein assay relative to control; conditions: SF-268, 48 h, read-out: Activity
[2] = test system: MCF7; test: Cytotoxicity against human MCF7 cells assessed as growth at 100 uM after 48 hrs by SRB protein assay relative to control; conditions: MCF7, 48 h, read-out: Activity
[3] = test system: NCI-H460; test: Cytotoxicity against human […] cells assessed as growth at 100 uM after 48 hrs by SRB protein assay relative to control; conditions: NCI-H460, 48 h, read-out: Activity

SMILES | growth at 100 µM [1] [%] | growth at 100 µM [2] [%] | growth at 100 µM [3] [%]
COc1ccc(/C=N/NC(=O)Cc2csc3nc(-c4ccc(Br)cc4)cn23)cc1 | 56 | 46 | 34
CN(C)c1ccc(/C=N/NC(=O)Cc2csc3nc(-c4ccc(Br)cc4)cn23)cc1 | 77 | 82 | 69
O=C(Cc1csc2nc(-c3ccc(Br)cc3)cn12)N/N=C/c1ccc(F)cc1 | 84 | 71 | 35
O=C(Cc1csc2nc(-c3ccc(Br)cc3)cn12)N/N=C/c1ccc(Br)cc1 | 107 | 56 | 75
